Laboratory results reported in ChEMBL document CHEMBL1147425, “Structure-activity relationships of non-imidazole H(3) receptor ligands. Part 3: 5-Substituted 3-phenyl-1,2,4-oxadiazoles as potent antagonists” (Bioorg Med Chem Lett, 2004).

Key:
[1] = target: Histamine H4 receptor (Homo sapiens, UniProt Q9H3N8); test: Binding affinity towards histamine H4 receptor of human colon cells was determined; format: cell-based
[2] = target: Histamine H3 receptor (Rattus norvegicus, UniProt Q9QYN8); test: Binding affinity for rat histamine H3 receptor on rat cortical cells
Chain of Histamine H3 receptor (Rattus norvegicus, UniProt Q9QYN8) (Q9QYN8 whole entry): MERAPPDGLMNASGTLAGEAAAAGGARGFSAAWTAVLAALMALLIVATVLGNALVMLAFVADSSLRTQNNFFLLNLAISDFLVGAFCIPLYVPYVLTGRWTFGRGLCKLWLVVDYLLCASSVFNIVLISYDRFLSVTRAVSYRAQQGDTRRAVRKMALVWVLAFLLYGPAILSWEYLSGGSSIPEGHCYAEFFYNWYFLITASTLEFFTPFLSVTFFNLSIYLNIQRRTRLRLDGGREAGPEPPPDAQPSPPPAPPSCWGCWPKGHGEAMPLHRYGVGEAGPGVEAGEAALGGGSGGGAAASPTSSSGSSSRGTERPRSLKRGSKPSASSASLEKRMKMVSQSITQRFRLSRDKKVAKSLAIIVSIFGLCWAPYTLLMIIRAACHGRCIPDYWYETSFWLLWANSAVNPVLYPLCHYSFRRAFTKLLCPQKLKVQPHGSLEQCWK

[3] = target: Histamine H3 receptor (Homo sapiens, UniProt Q9Y5N1); test: Binding affinity for human histamine H3 receptor on human colon cells; format: cell-based
Chain of Histamine H3 receptor (Homo sapiens, UniProt Q9Y5N1) (Q9Y5N1 whole entry): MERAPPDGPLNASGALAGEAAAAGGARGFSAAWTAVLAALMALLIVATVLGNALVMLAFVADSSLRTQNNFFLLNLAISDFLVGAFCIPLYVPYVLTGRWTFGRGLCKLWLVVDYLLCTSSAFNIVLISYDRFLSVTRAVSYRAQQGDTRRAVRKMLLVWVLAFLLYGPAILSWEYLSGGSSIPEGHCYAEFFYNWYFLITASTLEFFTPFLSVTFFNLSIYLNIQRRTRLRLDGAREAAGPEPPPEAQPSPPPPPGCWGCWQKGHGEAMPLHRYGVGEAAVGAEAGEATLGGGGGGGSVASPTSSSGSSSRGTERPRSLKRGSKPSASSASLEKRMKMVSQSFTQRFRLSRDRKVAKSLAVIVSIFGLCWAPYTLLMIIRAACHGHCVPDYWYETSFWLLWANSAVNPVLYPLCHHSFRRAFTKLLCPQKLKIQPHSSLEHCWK

[4] = target: Histamine H1 receptor (Homo sapiens, UniProt P35367); test: Binding affinity towards histamine H1 receptor of human colon cells was determined; format: cell-based
Chain of Histamine H1 receptor (P35367 whole entry): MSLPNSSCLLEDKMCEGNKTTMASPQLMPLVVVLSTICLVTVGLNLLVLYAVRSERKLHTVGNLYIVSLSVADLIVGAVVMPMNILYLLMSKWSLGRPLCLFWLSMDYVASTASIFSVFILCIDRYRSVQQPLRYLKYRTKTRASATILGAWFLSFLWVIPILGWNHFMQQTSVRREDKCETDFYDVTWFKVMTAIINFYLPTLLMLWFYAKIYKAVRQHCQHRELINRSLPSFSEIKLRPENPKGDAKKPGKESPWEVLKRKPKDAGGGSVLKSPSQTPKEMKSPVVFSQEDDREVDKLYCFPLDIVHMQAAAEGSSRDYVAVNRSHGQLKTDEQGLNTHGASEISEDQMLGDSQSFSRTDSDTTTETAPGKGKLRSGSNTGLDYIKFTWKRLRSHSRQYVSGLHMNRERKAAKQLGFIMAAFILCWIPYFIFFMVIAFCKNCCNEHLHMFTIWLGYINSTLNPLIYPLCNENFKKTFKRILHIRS

[5] = target: Histamine H2 receptor (Homo sapiens, UniProt P25021); test: Binding affinity towards histamine H2 receptor of human colon cells was determined; format: cell-based
Chain of Histamine H2 receptor (P25021 whole entry): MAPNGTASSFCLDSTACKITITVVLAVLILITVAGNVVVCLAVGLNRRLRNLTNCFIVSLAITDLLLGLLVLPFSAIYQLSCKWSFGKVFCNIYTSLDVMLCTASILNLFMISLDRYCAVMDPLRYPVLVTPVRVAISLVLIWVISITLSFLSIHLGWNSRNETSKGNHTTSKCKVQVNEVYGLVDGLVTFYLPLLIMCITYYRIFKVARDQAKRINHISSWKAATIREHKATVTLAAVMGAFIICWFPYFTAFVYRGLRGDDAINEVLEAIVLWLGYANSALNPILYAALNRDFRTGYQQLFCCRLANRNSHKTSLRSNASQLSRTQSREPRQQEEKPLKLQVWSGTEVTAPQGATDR

[6] = test system: Mus musculus; test: Antagonistic effect was observed against agonist induced dipsogenia in mice after i.p. administration of compound; Active; format: functional

SMILES	Ki [1] [nM]	Ki [2] [nM]	Ki [3] [nM]	Ki [4] [nM]	Ki [5] [nM]	Activity [6] [µM/kg]
C[C@@H](NC(=O)c1ccc(N(C)C)cc1)C(=O)N1CCN(CCCOc2ccc(-c3noc(CC4CCCC4)n3)c(F)c2)CC1	> 10000	2.4	15	890	> 10000	>0.01
C[C@@H](NC(=O)c1ccc(Br)cc1)C(=O)N1CCN(CCCOc2ccc(-c3noc(CC4CCCC4)n3)c(F)c2)CC1	–	6.2	18	–	–	–
C[C@@H](NC(=O)C(C)(C)C)C(=O)N1CCN(CCCOc2ccc(-c3noc(CC4CCCC4)n3)c(F)c2)CC1	–	7	130	–	–	–
CC(=O)N[C@H](C)C(=O)N1CCN(CCCOc2ccc(-c3noc(CC4CCCC4)n3)c(F)c2)CC1	–	8.9	200	–	–	–
CCCCC(=O)N[C@H](C)C(=O)N1CCN(CCCOc2ccc(-c3noc(CC4CCCC4)n3)c(F)c2)CC1	–	2.6	79	–	–	–
C[C@@H](NC(=O)c1ccc(Cl)c(Cl)c1)C(=O)N1CCN(CCCOc2ccc(-c3noc(CC4CCCC4)n3)c(F)c2)CC1	–	1.8	15	–	–	–
CC(C)CC(=O)N[C@H](C)C(=O)N1CCN(CCCOc2ccc(-c3noc(CC4CCCC4)n3)c(F)c2)CC1	–	5	110	–	–	–
C[C@@H](N)C(=O)N1CCN(CCCOc2ccc(-c3noc(C4CC4)n3)c(F)c2)CC1	–	3.1	560	–	–	–
C[C@@H](NC(=O)c1cccc(N(C)C)c1)C(=O)N1CCN(CCCOc2ccc(-c3noc(CC4CCCC4)n3)c(F)c2)CC1	–	2.6	47	–	–	–
CC(C)CCC(=O)N[C@H](C)C(=O)N1CCN(CCCOc2ccc(-c3noc(CC4CCCC4)n3)c(F)c2)CC1	–	6.1	98	–	–	–
CC(C)C(=O)N[C@H](C)C(=O)N1CCN(CCCOc2ccc(-c3noc(CC4CCCC4)n3)c(F)c2)CC1	–	8	230	–	–	–
C[C@@H](NC(=O)c1cccc(C(F)(F)F)c1)C(=O)N1CCN(CCCOc2ccc(-c3noc(CC4CCCC4)n3)c(F)c2)CC1	–	10	87	–	–	–
C[C@@H](N)C(=O)N1CCCN(CCCOc2ccc(-c3noc(C4CC4)n3)c(F)c2)CC1	–	3	240	–	–	–
CC(C)CC(=O)N[C@H](C)C(=O)N1CCCN(CCCOc2ccc(-c3noc(CC4CCCC4)n3)c(F)c2)CC1	–	1.1	13	–	–	–

The next lines start with results.

Ki [1] [nM]	Ki [2] [nM]	Ki [3] [nM]	Ki [4] [nM]	Ki [5] [nM]	SMILES	Activity [6] [µM/kg]
–	4.6	39	–	–	C[C@@H](NC(=O)c1ccccc1)C(=O)N1CCN(CCCOc2ccc(-c3noc(-c4ccccc4)n3)c(F)c2)CC1	–
–	0.94	7.5	–	–	C[C@@H](NC(=O)c1ccco1)C(=O)N1CCCN(CCCOc2ccc(-c3noc(CCc4ccccc4)n3)c(F)c2)CC1	–
–	2.6	49	–	–	C[C@@H](NC(=O)c1ccco1)C(=O)N1CCCN(CCCOc2ccc(-c3noc(-c4ccsc4)n3)c(F)c2)CC1	–
–	5.2	31	–	–	C[C@@H](NC(=O)c1ccc(Cl)cc1)C(=O)N1CCCN(CCCOc2ccc(-c3noc(CC4CCCC4)n3)c(F)c2)CC1	–
–	3.8	18	–	–	C[C@@H](NC(=O)c1cccc(F)c1)C(=O)N1CCN(CCCOc2ccc(-c3noc(CC4CCCC4)n3)c(F)c2)CC1	–
–	7	70	–	–	C[C@@H](NC(=O)C1CCCC1)C(=O)N1CCN(CCCOc2ccc(-c3noc(-c4ccccc4)n3)c(F)c2)CC1	–
–	1.7	85	–	–	C[C@@H](NC(=O)c1ccco1)C(=O)N1CCCN(CCCOc2ccc(-c3noc(-c4ccoc4)n3)c(F)c2)CC1	–
–	3.7	110	–	–	CC(C)OCc1nc(-c2ccc(OCCCN3CCCN(C(=O)[C@@H](C)NC(=O)c4ccco4)CC3)cc2F)no1	–
–	8.2	92	–	–	C[C@@H](NC(=O)CN1CCOCC1)C(=O)N1CCN(CCCOc2ccc(-c3noc(-c4ccccc4)n3)c(F)c2)CC1	–
–	1.6	40	–	–	C[C@@H](NC(=O)c1ccco1)C(=O)N1CCCN(CCCOc2ccc(-c3noc(Cc4ccccc4)n3)c(F)c2)CC1	–
–	13	83	–	–	C[C@@H](NC(=O)c1ccco1)C(=O)N1CCN(CCCOc2ccc(-c3noc(-c4ccccc4)n3)c(F)c2)CC1 (stereo in doubt; 13q)	–
–	1.1	64	–	–	C[C@@H](NC(=O)c1ccco1)C(=O)N1CCN(CCCOc2ccc(-c3noc(C4CC4)n3)c(F)c2)CC1	–
–	6.2	160	–	–	C[C@@H](NC(=O)c1ccco1)C(=O)N1CCCN(CCCOc2ccc(-c3noc(-c4cccs4)n3)c(F)c2)CC1	–
–	1.3	43	–	–	C[C@@H](NC(=O)c1ccco1)C(=O)N1CCN(CCCOc2ccc(C(=O)C3CC3)c(F)c2)CC1	–
–	14	110	–	–	CC(C)C(=O)N[C@H](C)C(=O)N1CCN(CCCOc2ccc(-c3noc(-c4ccccc4)n3)c(F)c2)CC1	–
–	9.8	170	–	–	CC(C)C(NC(=O)OC(C)(C)C)c1nc(-c2ccc(OCCCN3CCCN(C(=O)[C@@H](C)NC(=O)c4ccco4)CC3)cc2F)no1 (some centres undefined)	–
–	2.6	20	–	–	C[C@@H](NC(=O)c1ccc(C#N)cc1)C(=O)N1CCN(CCCOc2ccc(-c3noc(-c4ccccc4)n3)c(F)c2)CC1	–
–	0.86	15	–	–	C[C@@H](NC(=O)c1ccco1)C(=O)N1CCCN(CCCOc2ccc(-c3noc(C4CCCC4)n3)c(F)c2)CC1	–
–	11	520	–	–	C[C@@H](NC(=O)c1ccco1)C(=O)N1CCCN(CCCOc2ccc(-c3noc(-c4ccncc4)n3)c(F)c2)CC1	–
–	0.56	8.6	–	–	CC(C)CCc1nc(-c2ccc(OCCCN3CCCN(C(=O)[C@@H](C)NC(=O)c4ccco4)CC3)cc2F)no1	–
–	1.5	42	–	–	C[C@@H](NC(=O)c1ccco1)C(=O)N1CCCN(CCCOc2ccc(-c3noc(C4CC4)n3)c(F)c2)CC1	–
